Laboratory results published in PubChem BioAssay AID1963844 (Molecular Pharmacology Branch, DTP, NCI, 2024).
Several values for one entry are separate records, joined by “and”; a condition that tells them apart may be missing. Identical values can stand only once.

Test system: 422866-222-R5-J1-PDC complex spheroid viability
Experiment: Anticancer human tumor 422866-222-R5-J1-PDC patient-derived pancreatic adenocarcinoma cell line growth inhibition [POLQ]
Settings: for viability, T/C: stronger effect = lower value; for IC50: curve of compound
Experimental: Multicellular complex tumor spheroid response to Polymerase (POL) inhibitors (novobiocin, ART-558, RP6685) in combination with a variety of drugs and investigational agents in selected tumor cell lines
The POL inhibitors (novobiocin, ART-558, and RP6685) were evaluated both individually and in combination with standard of care and investigational anticancer small molecules within a complex spheroid model of solid tumors. . Complex spheroids include a stromal component modeled by human endothelial cells (HUVEC) and fibroblasts modeled by human mesenchymal stem cells (MSCs). The concentration ranges selected for each drug and investigational agent were based upon clinically achievable concentrations if the clinical Cmax of the agent was known.
Compounds. The drugs and investigational agents: novobiocin (NSC847541), ART-558 (NSC835418), RP-6685 (NSC848927), peposertib (NSC802822), ceralasertib (NSC780249), elimusertib (NSC800525), camonsertib (NSC841442), AZD-1390 (NSC803789), olaparib (NSC753686), talazoparib (NSC767125), rucaparib (NSC756644), sotorasib (NSC818433), MRTX-1133 (NSC836407), SN-38 (NSC673596), topotecan (NSC609699), epotoside (NSC141540), doxorubicin (NSC123127), gemcitabine (NSC613327), 5-fluorouracil (NSC19893), paclitaxel (NSC125973), vemurafenib (NSC761431), MSA-2 (NSC828583), SN-011 (NSC837082), adavosertib (NSC754352), prexasertib (NSC758257), carboplatin (NSC241240) and oxaliplatin (NSC266046), were obtained from the National Cancer Institute (NCI) Developmental Therapeutics Program Chemical Repository (21). The FDA-approved anticancer drug set is available from the Developmental Therapeutics Program at https://dtp.cancer.gov/organization/dscb/obtaining/. […] The stock solutions were prepared in dimethyl sulfoxide (DMSO, Sigma-Aldrich, St. Louis, MO, cat. D2650), except for the platinum compounds which were prepared in saline (Quality Biological, Gaithersburg, MD, cat. 114-055-101), at 800-fold the tested concentration and stored at -70 degrees C prior to their use. All drugs and investigational agents were tested over a range starting from a high concentration at or near the clinical Cmax and decreasing in half-log increments. If the clinical Cmax for an agent had not been determined, the highest concentration tested was 10 microM, except for SN-38, which was tested at a high concentration of 1 microM.
Cell Culture. All cells were maintained in an incubator at 37 degrees C and 5% CO2 with 95% humidity. The PDC lines were cultured according to standard operating procedures established by the NCI PDMR (https://pdmr.cancer.gov). Table 3 of the manuscript, lists the cell lines along with the number of the three cell types plated to form the mct-spheroids and media for tumor cell growth. After thawing, all PDC lines, except 997537-175-T-J1-PDC and 415267-285-R-J2-PDC, were cultured in Matrigel-coated flasks prepared with a working solution of 1X Ham's F-12 nutrient mix, without supplementation (Thermo Fisher Scientific, cat. 11765054), 100 U/mL penicillin-streptomycin (Thermo Fisher Scientific, cat. 15140122), and 2.5% Matrigel (Corning Inc., Corning, NY, cat. 354248) for the first three passages. The two PDC lines 997537-175-T-J1-PDC and 415267-285-R-J2-PDC were cultured on uncoated flasks. The 857933-349-R-J2-PDC line was cultured in 6C/Colon 1B media containing advanced DMEM/F-12 (Thermo Fisher Scientific, cat. 12634028), 10 mM HEPES (Thermo Fisher Scientific, cat. 15630080), 1X GlutaMAX supplement (Thermo Fisher Scientific, cat. 35050061), 0.1 mg/mL primocin (InvivoGen, San Diego, CA, cat. ant-pm-2), 10% defined fetal bovine serum, heat inactivated (HyClone Laboratories Inc., Logan, UT, cat. SH30070.03HI), 50% L-WRN conditioned media (ATCC, cat. CRL-3276), 1.25 mM N-Acetyl-L-cysteine (Sigma-Aldrich, cat. A9165), 10 mM nicotinamide (Sigma-Aldrich, cat. N0636), 1X B-27 supplement (Thermo Fisher Scientific, cat. 17504044), 1X N-2 supplement (Thermo Fisher Scientific, cat. […]
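Also: spheroids exposed to compounds for one week before readout.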
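For viability, T/C in this document: percent of DMSO vehicle wells luminescence so 100% = untreated viability.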

| Structure (SMILES) | viability, T/C (compound 0.0316 µM) | viability, T/C (compound 0.1 µM) | viability, T/C (compound 0.316 µM) | viability, T/C (compound 1 µM) | viability, T/C (compound 3.16 µM) | IC50 | viability, T/C (compound 10 µM) |
| --- | --- | --- | --- | --- | --- | --- | --- |
| CCCS(=O)(=O)Nc1ccc(F)c(C(=O)c2c[nH]c3ncc(-c4ccc(Cl)cc4)cc23)c1F | 102% and 117% and 105% | 115% and 138% and 140% | 130% and 119% and 128% | 163% (2×) and 148% | 194% and 210% and 192% | > 10000 nM | – |
| COc1cc(C2c3cc4c(cc3C(OC3OC5COC(C)OC5C(O)C3O)C3COC(=O)C23)OCO4)cc(OC)c1O (stereo not drawn) | 90.2% and 97.7% and 97.4% | 95% and 86.7% and 97.1% | 79.5% and 59.3% and 73.2% | 54.9% and 45.2% and 52.5% | 37% and 39.4% and 37.1% | 1340 nM and 667 nM and 1150 nM | 33.3% and 33.2% and 28.4% |
